Reference: patent US9028856B2, “Synergistic pesticide compositions” (priority 2008, dated 2015)

Experiments:
[1] = tested on: Culex quinquefasciatus mosquito; test: USDA Petri Dish Method, 3 min exposure to treated glazed tile (twenty 4-6 day old females); assay type: in vivo; details: for % KD and Mortality 3′ / % KD and Mortality 9′ / % KD and Mortality 15′ / % KD and Mortality 30′ / % KD and Mortality 1 h / % KD and Mortality 24 h: Table 73, in acetone, glazed tiles, 3′ exposure time; for % KD and Mortality 3′: 20 insects (three replicates); for % KD and Mortality 9′ / % KD and Mortality 15′ / % KD and Mortality 30′ / % KD and Mortality 1 h / % KD and Mortality 24 h: 20 insects; for Average % Mortality after 1 hr / Average % Mortality after 3 hr / Average % Mortality after 5 hr / Average % Mortality after 24 hr: Table 77, carbaryl study, Culex quinquefasciatus; for Average % Mortality after 1 hr: glazed tile, 3 min exposure, adjuvant = Compound A 1% + Compound B 0.5%
Protocol: (§1) MATERIALS AND METHODS: Solutions of resmethrin at 1 and 0.5% AI were prepared with and without adjuvant in acetone. […] USDA Petri Dish Method was used as initial screening protocol. Twenty, 4-6 day old female Culex quinquefasciatus mosquitoes were exposed to each treatment for 3 minutes and then moved to a clean untreated white paper index card. Treatments were replicated a minimum of three times. Mosquito knockdown was evaluated at 3 minute intervals for the first 15 minutes and then at 5 minute intervals for the remainder of an hour. A small cotton ball soaked in sucrose solution was added on the screen top of the petri-dish as a drinking source after the 2 hour evaluation. Mortality was evaluated at 24 hours after exposure.
Treatments were allowed to dry overnight. USDA Petri Dish Method was used as initial screening protocol. Twenty, 4-6 day old female Culex mosquitoes were exposed to each treatment for 3 minutes and then moved to a clean untreated white paper index card. Treatments were replicated a minimum of three times. Mosquito knockdown was evaluated at various intervals through 3 hours after exposure. A small cotton ball soaked in sucrose solution was added on the screen top of the petri-dish as a drinking source. Mortality was evaluated at 24 hours after exposure.
Treatments were allowed to dry overnight. USDA Petri Dish Method was used as initial screening protocol. Twenty, 4-6 day old female Culex quinquefasciatus mosquitoes were exposed to each treatment for 3 minutes and then moved to a clean untreated white paper index card. Treatments were replicated a minimum of three times. Mosquito knockdown was evaluated at various intervals through 2 hours after exposure. A small cotton ball soaked in sucrose solution was then added on the screen top of the petri-dish as a drinking source. Mortality was evaluated at 24 hours after exposure.
Treatments were allowed to dry overnight. USDA Petri Dish Method was used as initial screening protocol. Twenty, 4-6 day old female Culex quinquefasciatus mosquitoes were exposed to each treatment for 3 minutes and then moved to a clean untreated white paper index card. Treatments were replicated a minimum of three times. Mosquito knockdown was evaluated at various hourly intervals. A small cotton ball soaked in sucrose solution was added on the screen top of the petri-dish as a drinking source after 2 hours. Mortality was evaluated at 24 hours after exposure.

[2] = tested on: Odorous House ant, Tapinoma sessile; test: Knockdown/mortality of ant workers under continuous exposure on treated glazed tile; assay type: in vivo; details: Table 51, fipronil/adjuvant in acetone, glazed tile
Description: Actual coverage was about 5″×5″ (or 161 cm2) for easy handling. Treatments were allowed to dry overnight. […] Treatments were replicated minimum three times.
(§2) Treatments were allowed to dry overnight. […] Treatments were replicated minimum three times.
(§3) Treatments were allowed to dry overnight. […] Treatments were replicated a minimum of three times.
Treatments were allowed to dry overnight. […] Treatments were replicated minimum of three times. […] The results are shown in FIG. 84 (No adjuvant alone treatment was performed).

[3] = tested on: Argentine ant, Linepithema humile; test: as above; details: Table 49, fipronil/adjuvant in acetone, glazed tile
Outline: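 0.5% AI imidacloprid in acetone, alone or with 0.1, 1.0 or 5.0% additive (benzenepropanoic acid, oleic acid, methyl oleate, methyl linoleate, methyl palmitate or BHA), 1 ml dried overnight on glazed tile (~161 cm^2). Ten workers confined under continuous exposure, water from 3 h; knockdown/mortality scored at intervals and 24 h; ≥3 replicates.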

[4] = tested on: Red Imported Fire ant (RIFA), Solenopsis invicta; test: as above; assay type: in vivo; details: Table 52, fipronil/adjuvant in acetone, glazed tile
Description: as §2, §3

Aedes aegypti mosquito = test: USDA Petri Dish Method, 3 min exposure to treated glazed tile; assay type: in vivo; details: glazed tile, 3 min exposure
Protocol: Treatments were allowed to dry overnight. USDA Petri Dish Method was used as initial screening protocol. Twenty, 4-6 day old female Aedes aegypti mosquitoes were exposed to each treatment for 3 minutes and then moved to a clean untreated white paper index card. Treatments were replicated a minimum of three times. Mosquito knockdown was evaluated at various intervals through 7 hours after exposure. A small cotton ball soaked in sucrose solution was added on the screen top of the petri-dish as a drinking source. Mortality was evaluated at 24 hours after exposure.
as §1, with “Aedes aegypti” for “Culex quinquefasciatus”, “source.” for “source after the 2 hour evaluation.”
Treatments were allowed to dry overnight. USDA Petri Dish Method was used as initial screening protocol. Twenty, 4-6 day old female Aedes aegypti mosquitoes were exposed to each treatment for 3 minutes and then moved to a clean untreated white paper index card. Treatments were replicated a minimum of three times. Mosquito knockdown was evaluated at various intervals through 6 hours after exposure. A small cotton ball soaked in sucrose solution was added on the screen top of the petri-dish as a drinking source. Mortality was evaluated at 24 hours after exposure.
Treatments were allowed to dry overnight. USDA Petri Dish Method was used as initial screening protocol. Twenty, 4-6 day old female Aedes aegypti mosquitoes were exposed to each treatment for 3 minutes and then moved to a clean untreated white paper index card. Treatments were replicated a minimum of three times. Mosquito knockdown was evaluated at 5 minute intervals for the first hour and then at 2, 4 and 6 hours. A small cotton ball soaked in sucrose solution was added on the screen top of the petri-dish as a drinking source. Mortality was evaluated at 24 hours after exposure.
Treatments were allowed to dry overnight. USDA Petri Dish Method was used as initial screening protocol. Twenty, 4-6 day old female Aedes aegypti mosquitoes were exposed to each treatment for 3 minutes and then moved to a clean untreated white paper index card. Treatments were replicated a minimum of three times. Mosquito knockdown was evaluated at 3-5 minute intervals for the first hour. A small cotton ball soaked in sucrose solution was then added on the screen top of the petri-dish as a drinking source. Mortality was evaluated at 24 hours after exposure.
Treatments were allowed to dry overnight. USDA Petri Dish Method was used as initial screening protocol. Twenty, 4-6 day old female Aedes aegypti mosquitoes were exposed to each treatment for 3 minutes and then moved to a clean untreated white paper index card. Treatments were replicated a minimum of three times. Mosquito knockdown was evaluated at various intervals through 2 hours after exposure. A small cotton ball soaked in sucrose solution was then added on the screen top of the petri-dish as a drinking source. Mortality was evaluated at 24 hours after exposure.
Treatments were allowed to dry overnight. USDA Petri Dish Method was used as initial screening protocol. Twenty, 4-6 day old female Aedes aegypti mosquitoes were exposed to each treatment for 3 minutes and then moved to a clean untreated white paper index card. Treatments were replicated a minimum of three times. Mosquito knockdown was evaluated at various hourly intervals. […]

[5] = tested on: susceptible/normal German cockroach (Monheim strain), Blattella germanica; test: Knockdown/mortality of male cockroaches under continuous exposure on treated glazed tile; assay type: in vivo; details: Table 53, fipronil/adjuvant in acetone, glazed tile, Monheim strain
Protocol: Treatments were allowed to dry overnight. […] Treatments were replicated a minimum of three times. […]
Treatments were allowed to dry overnight. […] Treatments were replicated a minimum of three times. Cockroach knockdown/mortality was evaluated at 5 minute intervals for the first 60 minutes after exposure and then at 2, 18 and 24 hours.

[6] = Table 48, fipronil/adjuvant in acetone
[7] = Table 37, resmethrin/adjuvant in acetone

CNC(=O)Oc1cccc2c1OC(C)(C)O2 [0.01% = 5 mg Bendiocarb/m^2] was tested, and the “% KD and Mortality 3′” value [1] was 0%, the “% KD and Mortality 9′” value [1] was 0% and the “% KD and Mortality 15′” value [1] was 0%. The “% KD and Mortality 30′” value [1] was 0%, the “% KD and Mortality 1 h” value [1] was 0% and the “% KD and Mortality 24 h” value [1] was 0%.

For CNC(=O)Oc1cccc2c1OC(C)(C)O2 [0.1% = 50 mg Bendiocarb/m^2], the “% KD and Mortality 3′” value [1] was 0%, the “% KD and Mortality 9′” value [1] was 0% and the “% KD and Mortality 15′” value [1] was 0%. The “% KD and Mortality 30′” value [1] was 15%, the “% KD and Mortality 1 h” value [1] was 37% and the “% KD and Mortality 24 h” value [1] was 81%.

N#Cc1nn(-c2c(Cl)cc(C(F)(F)F)cc2Cl)c(N)c1[S+]([O-])C(F)(F)F (stereo not drawn) [Fipronil (.0001%)] was tested, and the “Average % Mortality after 30 min” value ([2]; 30 min) was 0%, the “Average % Mortality after 60 min” value ([2]; 60 min) was 3% and the “Average % Mortality after 2 hr” value ([2]; 2 hr) was 3%. The “Average % Mortality after 24 hr” value ([2]; 24 hr) was 54%, the “Average % Mortality after 30 min” value ([3]; 30 min) was 0% and the “Average % Mortality after 60 min” value ([3]; 60 min) was 0%. The “Average % Mortality after 2 hr” value ([3]; 2 hr) was 0%, the “Average % Mortality after 3 hr” value ([3]; 3 hr) was 0% and the “Average % Mortality after 24 hr” value ([3]; 24 hr) was 74%. The “Average % Mortality after 30 min” value ([4]; 30 min) was 3%, the “Average % Mortality after 60 min” value ([4]; 60 min) was 3% and the “Average % Mortality after 2 hr” value ([4]; 2 hr) was 3%. The “Average % Mortality after 3 hr” value ([4]; 3 hr) was 6%, the “Average % Mortality after 24 hr” value ([4]; 24 hr) was 47% and the “Average % Knockdown & Mortality after 15 min” value (Aedes aegypti mosquito; [6]) was 0%. The “Average % Knockdown & Mortality after 30 min” value (Aedes aegypti mosquito; [6]) was 0%, the “Average % Knockdown & Mortality after 60 min” value (Aedes aegypti mosquito; [6]) was 0% and the “Average % Knockdown & Mortality after 4 hr” value (Aedes aegypti mosquito; 4 hr, Table 48, fipronil/adjuvant in acetone) was 3%. For the same molecule, the “Average % Knockdown & Mortality after 6 hr” value (Aedes aegypti mosquito; 6 hr, Table 48, fipronil/adjuvant in acetone) was 3%, the “Average % Knockdown & Mortality after 24 hr” value (Aedes aegypti mosquito; [6]) was 9% and the “Average % Knockdown & Mortality after 60 min” value ([5]; 60 min) was 0%. The “Average % Knockdown & Mortality after 3 hr” value ([5]; 3 hr) was 7%, the “Average % Knockdown & Mortality after 5 hr” value ([5]; 5 hr) was 7% and the “Average % Knockdown & Mortality after 24 hr” value ([5]; 24 hr) was 7%.

With CC(C)=CC1C(C(=O)OCc2coc(Cc3ccccc3)c2)C1(C)C (stereo not drawn) [Resmethrin (0.5%)] the “Average % Knockdown & Mortality after 3 min” value ([1]; in vivo) was 0%, the “Average % Knockdown & Mortality after 15 min” value ([1]; in vivo) was 0% and the “Average % Knockdown & Mortality after 30 min” value ([1]; in vivo) was 0%. For the same molecule, the “Average % Knockdown & Mortality after 60 min” value ([1]; in vivo) was 0%, the “Average % Knockdown & Mortality after 2 hr” value ([1]; in vivo) was 0% and the “Average % Knockdown & Mortality after 24 hr” value ([1]; in vivo) was 0%. For the same molecule, the “Average % Knockdown & Mortality after 3 min” value (Aedes aegypti mosquito; 3 min, Table 37, resmethrin/adjuvant in acetone) was 0%, the “Average % Knockdown & Mortality after 15 min” value (Aedes aegypti mosquito; [7]) was 0% and the “Average % Knockdown & Mortality after 30 min” value (Aedes aegypti mosquito; [7]) was 0%. For the same molecule, the “Average % Knockdown & Mortality after 60 min” value (Aedes aegypti mosquito; [7]) was 0% and the “Average % Knockdown & Mortality after 24 hr” value (Aedes aegypti mosquito; [7]) was 8%.

CNC(=O)Oc1cccc2ccccc12 [carbaryl (0.1%)] was tested, and the “Average % Mortality after 1 hr” value [1] was 0% and the “Average % Mortality after 3 hr” value [1] was 0%.

With CNC(=O)Oc1cccc2ccccc12 [carbaryl (2.5%)] the “Average % Mortality after 1 hr” value [1] was 0%, the “Average % Mortality after 3 hr” value [1] was 0% and the “Average % Mortality after 5 hr” value [1] was 2%. For the same molecule, the “Average % Mortality after 24 hr” value [1] was 5%.

With CNC(=O)Oc1cccc2ccccc12 [carbaryl (5%)] the “Average % Mortality after 1 hr” value [1] was 0%, the “Average % Mortality after 3 hr” value [1] was 0% and the “Average % Mortality after 5 hr” value [1] was 0%. For the same molecule, the “Average % Mortality after 24 hr” value [1] was 0%.
